From CN114767685A, “四氢叶酸在抑菌或者预防或治疗眼部疾病中的用途” (Peking University Third Hospital Peking University Third …, priority 2022, dated 2022)

Experiments:
Fusarium (镰刀菌) [1] = assay: Inhibition of Fusarium colony growth on solid medium with proline as sole nitrogen source (pro- medium); format: cell-based, Fusarium (CGMCC3.5840); conditions: 29℃, 72 h, Figure 2
Fusarium (镰刀菌) [2] = assay: Inhibition of Fusarium on solid media with mixed amino acids as nitrogen source (simulated cornea); format: cell-based; conditions: THFA 10 mM, cultured as Example 1
Fusarium (镰刀菌) [3] = assay: Fusarium growth curve (OD) in liquid amino acid media, 96-well plate; format: cell-based; conditions: THFA 10 mM, each amino acid group, 29℃, 72 h, Figure 5B-F

In the case of `Nc1nc2c(c(=O)[nH]1)N[C@H](CNc1ccc(C(=O)N[C@@H](CCC(=O)O)C(=O)O)cc1)CN2` [THFA, 5,6,7,8-四氢叶酸], the “correlation of degree of inhibition with THFA concentration” value (Fusarium (镰刀菌) [1]; THFA 0-20 mM) is reported as “抑制程度与THFA浓度具有相关性”, the colony diameter (Fusarium (镰刀菌) [1]; THFA 5 mM) is reported as “明显小于2.5mM、1.25mM和0mM组” and the colony diameter (Fusarium (镰刀菌) [1]; THFA 10 mM) is reported as “均显著小于5mM组”. For the same molecule, the colony diameter (Fusarium (镰刀菌) [1]; THFA 20 mM) was “均显著小于5mM组”, the “inhibition of Fusarium growth” value (Fusarium (镰刀菌) [1]; THFA 1.25, 2.5, 5, 10, 20 mM vs 0 mM) was “镰刀菌的生长受到明显抑制” and the “inhibition of Fusarium growth” value (Fusarium (镰刀菌) [2]; solid media with different mixed amino acid nitrogen sources (taurine, glutamine, glycine, proline), Figure 4) was “均能够显著抑制镰刀菌生长”. For the same molecule, the colony pigment (Fusarium (镰刀菌) [2]; solid media with different mixed amino acids, Figure 4B-D) was “色素明显减弱” and the “Fusarium growth (absorbance, OD, growth curve)” value (Fusarium (镰刀菌) [3]) was “镰刀菌生长均明显下降”.
